The kinase profiling compilation of Christmann-Franck et al. (2016)

What was measured:
CAMK2G (human) = CAMK2G (human) (UniProt Q13555); assay: radiometric filter-binding kinase assay, Kinaseprofiler; conditions: compound 10.0 µM; ATP 10 µM
SIK1 (human) = SIK1 (human) (UniProt P57059); assay: as above; conditions: ATP 45 µM

Measured: residual activity

Chain of SIK1 (human) (P57059 whole entry, looked up): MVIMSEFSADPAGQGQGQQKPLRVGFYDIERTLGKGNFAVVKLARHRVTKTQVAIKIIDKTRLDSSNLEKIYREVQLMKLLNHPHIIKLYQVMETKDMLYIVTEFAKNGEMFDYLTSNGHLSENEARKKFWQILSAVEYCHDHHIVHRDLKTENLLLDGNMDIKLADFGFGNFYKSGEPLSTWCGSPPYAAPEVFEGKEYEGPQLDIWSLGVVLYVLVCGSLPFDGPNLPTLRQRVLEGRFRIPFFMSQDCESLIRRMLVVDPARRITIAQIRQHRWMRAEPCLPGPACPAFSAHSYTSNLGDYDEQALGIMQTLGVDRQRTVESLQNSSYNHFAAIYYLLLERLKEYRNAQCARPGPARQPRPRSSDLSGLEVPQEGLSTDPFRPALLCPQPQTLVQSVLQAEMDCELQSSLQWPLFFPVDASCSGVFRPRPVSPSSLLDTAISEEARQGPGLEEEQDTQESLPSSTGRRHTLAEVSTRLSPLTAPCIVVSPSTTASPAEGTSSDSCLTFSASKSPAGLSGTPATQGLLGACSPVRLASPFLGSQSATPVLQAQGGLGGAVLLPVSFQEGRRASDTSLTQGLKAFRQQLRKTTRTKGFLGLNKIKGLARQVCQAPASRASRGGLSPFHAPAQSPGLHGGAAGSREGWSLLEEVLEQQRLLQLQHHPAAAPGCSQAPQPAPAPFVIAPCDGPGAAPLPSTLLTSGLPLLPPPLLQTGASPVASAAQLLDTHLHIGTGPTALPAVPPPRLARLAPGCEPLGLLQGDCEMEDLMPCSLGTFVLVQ
Chain of CAMK2G (human) (Q13555 whole entry, looked up): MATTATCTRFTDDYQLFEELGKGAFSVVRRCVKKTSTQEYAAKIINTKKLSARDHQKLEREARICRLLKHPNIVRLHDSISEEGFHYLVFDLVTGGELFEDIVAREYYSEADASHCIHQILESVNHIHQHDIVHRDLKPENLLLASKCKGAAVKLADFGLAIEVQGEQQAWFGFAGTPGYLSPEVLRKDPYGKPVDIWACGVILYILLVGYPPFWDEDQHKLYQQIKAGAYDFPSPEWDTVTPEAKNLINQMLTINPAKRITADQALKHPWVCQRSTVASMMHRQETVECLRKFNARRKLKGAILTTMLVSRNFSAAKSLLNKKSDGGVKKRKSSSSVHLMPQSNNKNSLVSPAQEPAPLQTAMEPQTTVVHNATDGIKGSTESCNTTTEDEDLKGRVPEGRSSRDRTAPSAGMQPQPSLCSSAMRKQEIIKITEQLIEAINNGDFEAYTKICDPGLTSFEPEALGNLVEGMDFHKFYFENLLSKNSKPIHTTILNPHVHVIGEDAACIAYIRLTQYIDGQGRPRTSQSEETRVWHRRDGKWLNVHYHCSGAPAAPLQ

COC(=O)[C@]1(O)C[C@@H]2O[C@@]1(C)n1c3ccccc3c3c4c(c5c6ccccc6n2c5c31)C(=O)NC4
0%: CAMK2G (human) | SIK1 (human); compound 1.0 µM | SIK1 (human); compound 10.0 µM
